From patent US6737383B1, “Herbicidal oxadiazolidines” (priority 1999, dated 2004)

How the values were obtained:
wild oat = assay: Test B pre/postemergence wild oat; type: in vivo, Avena fatua
Method in brief: (§1)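 Herbicidal effect was estimated by eye on a ten-point control scale after plants spent twelve to sixteen days in a greenhouse following soil or foliar treatment. Foliar sprays targeted plants at one to four leaves; all doses were formulated in a non-phytotoxic solvent with surfactant.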

giant foxtail = assay: Test B pre/postemergence giant foxtail; type: in vivo, Setaria faberii
Method in brief: as §1

cocklebur = assay: Test B pre/postemergence cocklebur; type: in vivo, Xanthium strumarium
Method in brief: as §1

surinam grass = assay: Test B pre/postemergence surinam grass; type: in vivo, Brachiaria decumbens
Method in brief: as §1

sugar beet = assay: Test B pre/postemergence sugar beet; type: in vivo, Beta vulgaris
Method in brief: as §1

wheat = assay: Test B pre/postemergence wheat; type: in vivo, Triticum aestivum
Method in brief: as §1

pigweed = assay: Test B pre/postemergence pigweed; type: in vivo, Amaranthus retroflexus
Method in brief: as §1

soybean = assay: Test B pre/postemergence soybean; type: in vivo, Glycine max
Method in brief: as §1

corn = assay: Test B pre/postemergence corn; type: in vivo, Zea mays
Method in brief: as §1

rice = assay: Test B flood test rice; type: in vivo, Oryza sativa
Method in brief: (§2)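 Plants were grown to the 2-leaf stage before treatment with test chemical, then held in a greenhouse for twelve to sixteen days. Injury was visually rated against untreated controls on a 0–10 scale, where 0 is no effect and 10 is complete control.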

smallflower flatsedge = assay: Test B flood test smallflower flatsedge; type: in vivo, Cyperus difformis
Method in brief: as §2

blackgrass = assay: Test B pre/postemergence blackgrass; type: in vivo, Alopecurus myosuroides
Method in brief: as §1

bedstraw = assay: Test B pre/postemergence bedstraw; type: in vivo, Galium aparine
Method in brief: as §1

morningglory = assay: Test B pre/postemergence morningglory; type: in vivo, Ipomoea hederacea
Method in brief: as §1

rape = assay: Test B pre/postemergence rape; type: in vivo, Brassica napus
Method in brief: as §1

velvetleaf = assay: Test B pre/postemergence velvetleaf; type: in vivo, Abutilon theophrasti
Method in brief: as §1

[1] = Preemergence, Rate 62 g/ha, scale of 0 to 10 where 0 is no effect and 10 is complete control
[2] = Preemergence, Rate 250 g/ha, scale of 0 to 10 where 0 is no effect and 10 is complete control
[3] = Preemergence, Rate 500 g/ha, scale of 0 to 10 where 0 is no effect and 10 is complete control
[4] = Rate 62 g/ha, Postemergence, scale of 0 to 10 where 0 is no effect and 10 is complete control
[5] = Rate 125 g/ha, Postemergence, scale 0 to 10
[6] = Rate 125 g/ha, Preemergence, scale of 0 to 10 where 0 is no effect and 10 is complete control
[7] = Rate 500 g/ha, Postemergence, scale 0 to 10, 0 no effect, 10 complete control
[8] = Rate 62 g/ha, headed Pre-emergence (flood test species), scale 0 to 10 (0 no effect, 10 complete control)
[9] = Rate 125 g/ha, Pre-emergence, flood test species, scale 0 to 10 where 0 is no effect and 10 is complete control
[10] = Rate 250 g/ha, Pre-emergence, flood-test species, scale 0 to 10, 0 is no effect, 10 is complete control
[11] = Rate 500 g/ha, Pre-emergence, flood test species, scale 0 to 10 (0 no effect, 10 complete control)

## Cc1cc(C)c(-n2c(=O)on(C(=O)N(c3ccc(F)cc3)C(C)C)c2=O)c(Br)c1 [Compound 224]
Wild oat; [1]
  Wild oats plant response rating: 0
Wild oat; [2]
  Wild oats plant response rating: 0
Wild oat; [3]
  Plant response rating, Wild oats: 2
Wild oat; [4]
  Wild oats plant response rating: 0
Wild oat; [5]
  Wild oats plant response rating: 0
Wild oat; [6]
  Wild oats plant response rating: 0
Wild oat; Rate 250 g/ha, Postemergence
  Plant response rating (0 to 10; 0 is no effect, 10 is complete control), Wild oats: 0
Wild oat; [7]
  Wild oats plant response rating: 0
Giant foxtail; [1]
  Giant foxtail plant response rating: 3
Giant foxtail; [2]
  Giant foxtail plant response rating: 9
Giant foxtail; [3]
  Plant response rating, Giant foxtail: 10
Giant foxtail; [4]
  Giant foxtail plant response rating: 0
Giant foxtail; [5]
  Giant foxtail plant response rating: 0
Giant foxtail; [6]
  Giant foxtail plant response rating: 7
Giant foxtail; Rate 250 g/ha, Postemergence
  Plant response rating (0 to 10; 0 is no effect, 10 is complete control), Giant foxtail: 4
Giant foxtail; [7]
  Giant foxtail plant response rating: 0
cocklebur; [1]
  Cocklebur plant response rating: 0
cocklebur; [2]
  Cocklebur plant response rating: 0
cocklebur; [3]
  Plant response rating, Cocklebur: 0
cocklebur; [4]
  Cocklebur plant response rating: 0
cocklebur; [5]
  Cocklebur plant response rating: 0
cocklebur; [6]
  Cocklebur plant response rating: 0
cocklebur; Rate 250 g/ha, Postemergence
  Plant response rating (0 to 10; 0 is no effect, 10 is complete control), Cocklebur: 0
cocklebur; [7]
  Cocklebur plant response rating: 1
Surinam grass; [1]
  B. signalgrass plant response rating: 0
Surinam grass; Preemergence, Rate 250 g/ha, scale 0 to 10, 0 is no effect, 10 is complete control
  B. signalgrass plant response rating: 4
Surinam grass; [3]
  Plant response rating, B. signalgrass: 4
Surinam grass; [4]
  B. signalgrass plant response rating: 0
Surinam grass; Rate 125 g/ha, Postemergence, scale 0 (no effect) to 10 (complete control)
  B. signalgrass plant response rating: 0
Surinam grass; [6]
  B. signalgrass plant response rating: 3
Surinam grass; Rate 250 g/ha, Postemergence
  Plant response rating (0 to 10; 0 is no effect, 10 is complete control), B. signalgrass: 0
Surinam grass; [7]
  B. signalgrass plant response rating: 0
Sugar beet; [1]
  Sugarbeets plant response rating: 0
Sugar beet; [2]
  Sugarbeets plant response rating: 0
Sugar beet; [3]
  Plant response rating, Sugarbeets: 0
Sugar beet; [4]
  Sugarbeets plant response rating: 1
Sugar beet; [5]
  Sugarbeets plant response rating: 2
Sugar beet; [6]
  Sugarbeets plant response rating: 0
Sugar beet; Rate 250 g/ha, Postemergence
  Plant response rating (0 to 10; 0 is no effect, 10 is complete control), Sugarbeets: 4
Sugar beet; [7]
  Sugarbeets plant response rating: 4
wheat; [1]
  Wheat plant response rating: 0
wheat; [2]
  Wheat plant response rating: 0
wheat; [3]
  Plant response rating, Wheat: 0
wheat; [4]
  Wheat plant response rating: 0
wheat; [5]
  Wheat plant response rating: 0
wheat; [6]
  Wheat plant response rating: 0
wheat; Rate 250 g/ha, Postemergence
  Plant response rating (0 to 10; 0 is no effect, 10 is complete control), Wheat: 0
wheat; [7]
  Wheat plant response rating: 0
pigweed; [1]
  Redroot pigweed plant response rating: 0
pigweed; [2]
  Redroot pigweed plant response rating: 0
pigweed; [3]
  Plant response rating, Redroot pigweed: 4
pigweed; [4]
  Redroot pigweed plant response rating: 0
pigweed; [5]
  Redroot pigweed plant response rating: 2
pigweed; [6]
  Redroot pigweed plant response rating: 0
pigweed; Rate 250 g/ha, Postemergence
  Plant response rating (0 to 10; 0 is no effect, 10 is complete control), Redroot pigweed: 4
pigweed; [7]
  Redroot pigweed plant response rating: 7
soybean; [1]
  Soybean plant response rating: 0
soybean; [2]
  Soybean plant response rating: 0
soybean; [3]
  Plant response rating, Soybean: 0
soybean; [4]
  Soybean plant response rating: 2
soybean; [5]
  Soybean plant response rating: 3
soybean; [6]
  Soybean plant response rating: 0
soybean; Rate 250 g/ha, Postemergence
  Plant response rating (0 to 10; 0 is no effect, 10 is complete control), Soybean: 4
soybean; [7]
  Soybean plant response rating: 2
corn; [1]
  Corn plant response rating: 0
corn; [2]
  Corn plant response rating: 0
corn; [3]
  Plant response rating, Corn: 0
corn; [4]
  Corn plant response rating: 0
corn; [5]
  Corn plant response rating: 0
corn; [6]
  Corn plant response rating: 0
corn; Rate 250 g/ha, Postemergence
  Plant response rating (0 to 10; 0 is no effect, 10 is complete control), Corn: 0
corn; [7]
  Corn plant response rating: 0
rice; [8]
  Rice plant response rating: 0
rice; [9]
  Rice plant response rating: 0
rice; [10]
  Rice plant response rating: 0
rice; [11]
  Rice plant response rating: 0
Smallflower flatsedge; [8]
  S. Flatsedge plant response rating: 0
Smallflower flatsedge; [9]
  S. Flatsedge plant response rating: 0
Smallflower flatsedge; [10]
  S. Flatsedge plant response rating: 0
Smallflower flatsedge; [11]
  S. Flatsedge plant response rating: 0
blackgrass; [1]
  Blackgrass plant response rating: 2
blackgrass; [2]
  Blackgrass plant response rating: 3
blackgrass; [3]
  Plant response rating, Blackgrass: 5
blackgrass; [4]
  Blackgrass plant response rating: 0
blackgrass; [5]
  Blackgrass plant response rating: 0
blackgrass; [6]
  Blackgrass plant response rating: 2
blackgrass; Rate 250 g/ha, Postemergence
  Plant response rating (0 to 10; 0 is no effect, 10 is complete control), Blackgrass: 3
blackgrass; [7]
  Blackgrass plant response rating: 4
bedstraw; [1]
  Bedstraw plant response rating: 0
bedstraw; [2]
  Bedstraw plant response rating: 0
bedstraw; [3]
  Plant response rating, Bedstraw: 0
bedstraw; [4]
  Bedstraw plant response rating: 3
bedstraw; [5]
  Bedstraw plant response rating: 3
bedstraw; [6]
  Bedstraw plant response rating: 0
bedstraw; Rate 250 g/ha, Postemergence
  Plant response rating (0 to 10; 0 is no effect, 10 is complete control), Bedstraw: 4
bedstraw; [7]
  Bedstraw plant response rating: 4
morningglory; [1]
  Morningglory plant response rating: 0
morningglory; [2]
  Morningglory plant response rating: 0
morningglory; [3]
  Plant response rating, Morningglory: 0
morningglory; [4]
  Morningglory plant response rating: 2
morningglory; [5]
  Morningglory plant response rating: 2
morningglory; [6]
  Morningglory plant response rating: 0
morningglory; Rate 250 g/ha, Postemergence
  Plant response rating (0 to 10; 0 is no effect, 10 is complete control), Morningglory: 5
morningglory; [7]
  Morningglory plant response rating: 6
rape; [1]
  Rape plant response rating: 0
rape; [2]
  Rape plant response rating: 0
rape; [3]
  Plant response rating, Rape: 0
rape; [4]
  Rape plant response rating: 0
rape; [5]
  Rape plant response rating: 0
rape; [6]
  Rape plant response rating: 0
rape; Rate 250 g/ha, Postemergence
  Plant response rating (0 to 10; 0 is no effect, 10 is complete control), Rape: 0
rape; [7]
  Rape plant response rating: 0
velvetleaf; [1]
  Velvetleaf plant response rating: 0
velvetleaf; [2]
  Velvetleaf plant response rating: 0
velvetleaf; [3]
  Plant response rating, Velvetleaf: 0
velvetleaf; [4]
  Velvetleaf plant response rating: 0
velvetleaf; [5]
  Velvetleaf plant response rating: 0
velvetleaf; [6]
  Velvetleaf plant response rating: 0
velvetleaf; Rate 250 g/ha, Postemergence
  Plant response rating (0 to 10; 0 is no effect, 10 is complete control), Velvetleaf: 0
velvetleaf; [7]
  Velvetleaf plant response rating: 4
